{"source": "patent US8686150B2", "about": "(Sanofi, priority 2011, dated 2014)", "data": [{"target": "T1, human full-length recombinant PKC βII (Homo sapiens, UniProt P05771)", "T1 construct": "Active human full-length recombinant PKC βII; purchased Invitrogen GmbH, Darmstadt, Germany", "T1 sequence (P05771 1-673 isoform P05771-2)": "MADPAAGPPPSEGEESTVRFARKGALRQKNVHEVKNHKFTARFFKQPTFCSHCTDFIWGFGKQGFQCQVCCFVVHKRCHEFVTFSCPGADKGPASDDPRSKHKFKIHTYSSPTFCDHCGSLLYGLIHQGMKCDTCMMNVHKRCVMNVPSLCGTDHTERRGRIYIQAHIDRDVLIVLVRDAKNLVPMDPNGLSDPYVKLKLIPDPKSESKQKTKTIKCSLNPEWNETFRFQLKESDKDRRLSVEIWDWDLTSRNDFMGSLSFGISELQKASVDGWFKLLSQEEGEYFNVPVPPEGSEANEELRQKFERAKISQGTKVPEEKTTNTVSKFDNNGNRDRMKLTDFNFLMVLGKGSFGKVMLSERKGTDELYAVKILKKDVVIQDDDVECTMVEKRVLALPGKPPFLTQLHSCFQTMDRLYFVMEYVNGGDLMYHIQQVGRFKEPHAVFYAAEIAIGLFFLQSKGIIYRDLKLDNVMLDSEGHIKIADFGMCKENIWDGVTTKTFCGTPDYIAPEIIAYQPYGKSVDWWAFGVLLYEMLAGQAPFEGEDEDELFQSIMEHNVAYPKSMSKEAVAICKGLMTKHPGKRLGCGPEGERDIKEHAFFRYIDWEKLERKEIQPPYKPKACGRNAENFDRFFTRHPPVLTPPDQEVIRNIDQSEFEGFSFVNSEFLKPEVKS", "assay": "Determination of PKC βII inhibition (Caliper mobility-shift kinase assay, Fluorescein-RFARKGSLRQKNV peptide substrate)", "format": "biochemical", "conditions": "example compounds at a final concentration of 1.14 μM (±0.15 μM)", "method_in_brief": "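Full-length PKC βII (30 ng/ml in pre-dilution) with PS/DAG/Ca2+ activators, pH 7.4; fluorescein peptide and ATP at 3 μM and 120 μM before mixing. Reaction ran 60 min at 32 °C, was EDTA-stopped, and was read by mobility shift. % inhibition came from product/(substrate+product) peak heights, tested at 1.14 μM final.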", "units": {"inhibition at 1.14 µM": "%"}, "values": [{"smiles": "Cc1n[nH]c2nc(-c3ccc(O)c(F)c3)cc(C(=O)N3CCOC4(CCNCC4)C3)c12", "note": "[Example 344, [6-(3-Fluoro-4-hydroxy-phenyl)-3-methyl-1H-pyrazolo[3,4-b]pyridin-4-yl]-(1-oxa-4,9-diaza-spiro[5.5]undec-4-yl)-methanone]", "inhibition at 1.14 µM": 64}, {"smiles": "Cc1n[nH]c2nc(-c3ccc(O)c(F)c3)cc(C(=O)N3CCCC4(CNCCO4)C3)c12", "note": "(stereo not shown) [Example 345, [6-(3-Fluoro-4-hydroxy-phenyl)-3-methyl-1H-pyrazolo[3,4-b]pyridin-4-yl]-(1-oxa-4,8-diaza-spiro[5.5]undec-8-yl)-methanone]", "inhibition at 1.14 µM": 58}, {"smiles": "Cc1n[nH]c2nc(-c3ccc(O)c(F)c3)cc(C(=O)N3CCCC4(CCNC4)C3)c12", "note": "(stereo not shown) [Example 346, (2,7-Diaza-spiro[4.5]dec-7-yl)-[6-(3-fluoro-4-hydroxy-phenyl)-3-methyl-1H-pyrazolo[3,4-b]pyridin-4-yl]-methanone]", "inhibition at 1.14 µM": 59}, {"smiles": "Cc1n[nH]c2nc(-c3ccc(O)c(F)c3)cc(C(=O)N3CC[C@@H](N(C)C)C3)c12", "note": "[Example 347, ((R)-3-Dimethylamino-pyrrolidin-1-yl)-[6-(3-fluoro-4-hydroxy-phenyl)-3-methyl-1H-pyrazolo[3,4-b]pyridin-4-yl]-methanone]", "inhibition at 1.14 µM": 35}, {"smiles": "Cc1n[nH]c2nc(-c3ccc(O)c(F)c3)cc(C(=O)N3CC[C@H](N(C)C)C3)c12", "note": "[Example 348, ((S)-3-Dimethylamino-pyrrolidin-1-yl)-[6-(3-fluoro-4-hydroxy-phenyl)-3-methyl-1H-pyrazolo[3,4-b]pyridin-4-yl]-methanone]", "inhibition at 1.14 µM": 44}, {"smiles": "Cc1n[nH]c2nc(-c3ccc(O)c(F)c3)cc(C(=O)NC3CCCNC3)c12", "note": "(stereo not shown) [Example 349, 6-(3-Fluoro-4-hydroxy-phenyl)-3-methyl-1H-pyrazolo[3,4-b]pyridine-4-carboxylic acid piperidin-3-ylamide]", "inhibition at 1.14 µM": 81}, {"smiles": "Cc1n[nH]c2nc(-c3ccc(O)c(F)c3)cc(C(=O)NC3CC4CC3CN4)c12", "note": "(stereo not shown) [Example 350, 6-(3-Fluoro-4-hydroxy-phenyl)-3-methyl-1H-pyrazolo[3,4-b]pyridine-4-carboxylic acid (2-aza-bicyclo[2.2.1]hept-5-yl)-amide]", "inhibition at 1.14 µM": 77}, {"smiles": "Cc1n[nH]c2nc(-c3ccc(O)c(F)c3)cc(C(=O)N3CCN[C@@H](CC(C)C)C3)c12", "note": "[Example 351, [6-(3-Fluoro-4-hydroxy-phenyl)-3-methyl-1H-pyrazolo[3,4-b]pyridin-4-yl]-((S)-3-isobutyl-piperazin-1-yl)-methanone]", "inhibition at 1.14 µM": 88}, {"smiles": "Cc1n[nH]c2nc(-c3ccc(O)c(F)c3)cc(C(=O)N3CCNC(C)C3C)c12", "note": "(stereo not shown) [Example 352, (2,3-Dimethyl-piperazin-1-yl)-[6-(3-fluoro-4-hydroxy-phenyl)-3-methyl-1H-pyrazolo[3,4-b]pyridin-4-yl]-methanone]", "inhibition at 1.14 µM": 84}, {"smiles": "COC(=O)CC1CNCCN1C(=O)c1cc(-c2ccc(O)c(F)c2)nc2[nH]nc(C)c12", "note": "(stereo not shown) [Example 353, {1-[6-(3-Fluoro-4-hydroxy-phenyl)-3-methyl-1H-pyrazolo[3,4-b]pyridine-4-carbonyl]-piperazin-2-yl}-acetic acid methyl ester]", "inhibition at 1.14 µM": 70}, {"smiles": "Cc1n[nH]c2nc(-c3ccc(O)c(F)c3)cc(C(=O)NCC3CCNC3)c12", "note": "(stereo not shown) [Example 354, 6-(3-Fluoro-4-hydroxy-phenyl)-3-methyl-1H-pyrazolo[3,4-b]pyridine-4-carboxylic acid (pyrrolidin-3-ylmethyl)-amide]", "inhibition at 1.14 µM": 52}, {"smiles": "Cc1n[nH]c2nc(-c3ccc(O)c(F)c3)cc(C(=O)NC3CCCN(C)C3)c12", "note": "(stereo not shown) [Example 355, 6-(3-Fluoro-4-hydroxy-phenyl)-3-methyl-1H-pyrazolo[3,4-b]pyridine-4-carboxylic acid (1-methyl-piperidin-3-yl)-amide]", "inhibition at 1.14 µM": 60}, {"smiles": "CC(=O)N1CCN(C(=O)c2cc(-c3ccc(O)c(F)c3)nc3[nH]nc(C)c23)CC1", "note": "[Example 356, 1-{4-[6-(3-Fluoro-4-hydroxy-phenyl)-3-methyl-1H-pyrazolo[3,4-b]pyridine-4-carbonyl]-piperazin-1-yl}-ethanone]", "inhibition at 1.14 µM": 31}, {"smiles": "CC(=O)N1CCC(NC(=O)c2cc(-c3ccc(O)c(F)c3)nc3[nH]nc(C)c23)CC1", "note": "[Example 357, 6-(3-Fluoro-4-hydroxy-phenyl)-3-methyl-1H-pyrazolo[3,4-b]pyridine-4-carboxylic acid (1-acetyl-piperidin-4-yl)-amide]", "inhibition at 1.14 µM": 21}, {"smiles": "CCN1CC2CC1CN2C(=O)c1cc(-c2ccc(O)c(F)c2)nc2[nH]nc(C)c12", "note": "(stereo not shown) [Example 358, (5-Ethyl-2,5-diaza-bicyclo[2.2.1]hept-2-yl)-[6-(3-fluoro-4-hydroxy-phenyl)-3-methyl-1H-pyrazolo[3,4-b]pyridin-4-yl]-methanone]", "inhibition at 1.14 µM": 28}, {"smiles": "Cc1n[nH]c2nc(-c3ccc(O)c(F)c3)cc(C(=O)NCC3CCC(=O)N3)c12", "note": "(stereo not shown) [Example 359, 6-(3-Fluoro-4-hydroxy-phenyl)-3-methyl-1H-pyrazolo[3,4-b]pyridine-4-carboxylic acid (5-oxo-pyrrolidin-2-ylmethyl)-amide]", "inhibition at 1.14 µM": 36}, {"smiles": "Cc1n[nH]c2nc(-c3ccc(O)c(F)c3)cc(C(=O)NC3CCN(C4CCCCC4)CC3)c12", "note": "[Example 360, 6-(3-Fluoro-4-hydroxy-phenyl)-3-methyl-1H-pyrazolo[3,4-b]pyridine-4-carboxylic acid (1-cyclohexyl-piperidin-4-yl)-amide]", "inhibition at 1.14 µM": 52}, {"smiles": "Cc1n[nH]c2nc(-c3ccc(O)c(F)c3)cc(C(=O)NCC(C)(C)N3CCN(C)CC3)c12", "note": "[Example 362, 6-(3-Fluoro-4-hydroxy-phenyl)-3-methyl-1H-pyrazolo[3,4-b]pyridine-4-carboxylic acid [2-methyl-2-(4-methyl-piperazin-1-yl)-propyl]-amide]", "inhibition at 1.14 µM": 80}, {"smiles": "Cc1n[nH]c2nc(-c3ccc(O)c(F)c3)cc(C(=O)NCC(C)(C)CN)c12", "note": "[Example 363, 6-(3-Fluoro-4-hydroxy-phenyl)-3-methyl-1H-pyrazolo[3,4-b]pyridine-4-carboxylic acid (3-amino-2,2-dimethyl-propyl)-amide]", "inhibition at 1.14 µM": 72}, {"smiles": "Cc1n[nH]c2nc(-c3ccc(O)c(F)c3)cc(C(=O)NC3CC(C)(C)N(C)C(C)(C)C3)c12", "note": "[Example 364, 6-(3-Fluoro-4-hydroxy-phenyl)-3-methyl-1H-pyrazolo[3,4-b]pyridine-4-carboxylic acid (1,2,2,6,6-pentamethyl-piperidin-4-yl)-amide]", "inhibition at 1.14 µM": 38}, {"smiles": "Cc1n[nH]c2nc(-c3ccc(O)c(F)c3)cc(C(=O)N3CCCN(C)CC3)c12", "note": "[Example 365, [6-(3-Fluoro-4-hydroxy-phenyl)-3-methyl-1H-pyrazolo[3,4-b]pyridin-4-yl]-(4-methyl-[1,4]diazepan-1-yl)-methanone]", "inhibition at 1.14 µM": 41}, {"smiles": "CCN1CCCN(C(=O)c2cc(-c3ccc(O)c(F)c3)nc3[nH]nc(C)c23)CC1", "note": "[Example 366, (4-Ethyl-[1,4]diazepan-1-yl)-[6-(3-fluoro-4-hydroxy-phenyl)-3-methyl-1H-pyrazolo[3,4-b]pyridin-4-yl]-methanone]", "inhibition at 1.14 µM": 47}, {"smiles": "Cc1n[nH]c2nc(-c3ccc(O)c(F)c3)cc(C(=O)NCC3CCCCN3)c12", "note": "(stereo not shown) [Example 367, 6-(3-Fluoro-4-hydroxy-phenyl)-3-methyl-1H-pyrazolo[3,4-b]pyridine-4-carboxylic acid (piperidin-2-ylmethyl)-amide]", "inhibition at 1.14 µM": 36}, {"smiles": "Cc1n[nH]c2nc(-c3ccc(O)c(F)c3)cc(C(=O)N3CC(=O)NC(C(C)C)C3)c12", "note": "(stereo not shown) [Example 368, 4-[6-(3-Fluoro-4-hydroxy-phenyl)-3-methyl-1H-pyrazolo[3,4-b]pyridine-4-carbonyl]-6-isopropyl-piperazin-2-one]", "inhibition at 1.14 µM": 58}, {"smiles": "Cc1n[nH]c2nc(-c3ccc(O)c(F)c3)cc(C(=O)N3CC4CCCN4CC3c3ccccc3)c12", "note": "(stereo not shown) [Example 369, [6-(3-Fluoro-4-hydroxy-phenyl)-3-methyl-1H-pyrazolo[3,4-b]pyridin-4-yl]-(3-phenyl-hexahydro-pyrrolo[1,2-a]pyrazin-2-yl)-methanone]", "inhibition at 1.14 µM": 34}, {"smiles": "Cc1n[nH]c2nc(-c3ccc(O)c(F)c3)cc(C(=O)NCC(C)(c3ccccn3)N3CCCC3)c12", "note": "(stereo not shown) [Example 370, 6-(3-Fluoro-4-hydroxy-phenyl)-3-methyl-1H-pyrazolo[3,4-b]pyridine-4-carboxylic acid (2-pyridin-2-yl-2-pyrrolidin-1-yl-propyl)-amide]", "inhibition at 1.14 µM": 48}, {"smiles": "Cc1n[nH]c2nc(-c3ccc(O)c(F)c3)cc(C(=O)NCC(C)(CN3CCCC3)c3ccccn3)c12", "note": "(stereo not shown) [Example 371, 6-(3-Fluoro-4-hydroxy-phenyl)-3-methyl-1H-pyrazolo[3,4-b]pyridine-4-carboxylic acid (2-methyl-2-pyridin-2-yl-3-pyrrolidin-1-yl-propyl)-amide]", "inhibition at 1.14 µM": 31}, {"smiles": "Cc1n[nH]c2nc(-c3ccc(O)cc3)cc(C(=O)N3CCN(C)CC3c3ccccc3)c12", "note": "(stereo not shown) [Example 372, [6-(4-Hydroxy-phenyl)-3-methyl-1H-pyrazolo[3,4-b]pyridin-4-yl]-(4-methyl-2-phenyl-piperazin-1-yl)-methanone]", "inhibition at 1.14 µM": 66}, {"smiles": "Cc1n[nH]c2nc(-c3ccc(O)cc3)cc(C(=O)NC3CC4(CCNCC4)c4ccccc43)c12", "note": "(stereo not shown) [Example 373, 6-(4-Hydroxy-phenyl)-3-methyl-1H-pyrazolo[3,4-b]pyridine-4-carboxylic acid (2,3-dihydro-spiro[1H-indene-1,4′-piperidin]-3-yl)-amide]", "inhibition at 1.14 µM": 96}, {"smiles": "Cc1n[nH]c2nc(-c3ccc(O)cc3)cc(C(=O)N3CCNCC3c3cccnc3)c12", "note": "(stereo not shown) [Example 374, [6-(4-Hydroxy-phenyl)-3-methyl-1H-pyrazolo[3,4-b]pyridin-4-yl]-(2-pyridin-3-yl-piperazin-1-yl)-methanone]", "inhibition at 1.14 µM": 99}, {"smiles": "Cc1n[nH]c2nc(-c3ccc(O)cc3)cc(C(=O)N3CCNC(Cc4ccccc4)C3)c12", "note": "(stereo not shown) [Example 375, (3-Benzyl-piperazin-1-yl)-[6-(4-hydroxy-phenyl)-3-methyl-1H-pyrazolo[3,4-b]pyridin-4-yl]-methanone]", "inhibition at 1.14 µM": 90}]}]}
